Data taken from the NIST ThermoML archive (doi:10.1021/je5001523).

Test: mn = molality of the nth substance listed, in mol/kg
Details: 101 kPa, Liquid; for viscosity: Capillary tube (Ostwald / Ubbelohde) method

[Cl-].[Li+] [lithium chloride] + O
Details | mass density, 288.15 K [kg/m3] | mass density, 298.15 K [kg/m3] | mass density, 308.15 K [kg/m3] | mass density, 318.15 K [kg/m3] | viscosity, 288.15 K [mPa·s] | viscosity, 298.15 K [mPa·s] | viscosity, 308.15 K [mPa·s] | viscosity, 318.15 K [mPa·s]
m1 = 0.5 | 1012.05 | 1009.46 | 1006.13 | 1002.07 | 1.212 | 0.94 | 0.76 | 0.629
m1 = 1 | 1023.76 | 1020.94 | – | 1012.4 | 1.288 | 1.002 | 0.802 | 0.661
m1 = 2 | 1045.1 | 1041.17 | 1036.24 | 1031.32 | 1.444 | 1.112 | 0.882 | 0.724
m1 = 3 | 1062.67 | 1057.69 | 1051.58 | 1047.47 | 1.586 | 1.229 | 0.962 | 0.785
